The term AC50 denotes the concentration at which the activity in the assay is half-maximal. Higher therefore signals weaker potency.

The results in this text go back to ChEMBL document CHEMBL5291721, “A preclinical secondary pharmacology resource illuminates target-adverse drug reaction associations of marketed drugs” (Nat Commun, 2023).

One assay has as its target D(1A) dopamine receptor (Homo sapiens, UniProt P21728).
The target of assay [1] is T1, Alpha-1A adrenergic receptor (Homo sapiens, UniProt P35348).
T1 sequence (P35348 whole entry): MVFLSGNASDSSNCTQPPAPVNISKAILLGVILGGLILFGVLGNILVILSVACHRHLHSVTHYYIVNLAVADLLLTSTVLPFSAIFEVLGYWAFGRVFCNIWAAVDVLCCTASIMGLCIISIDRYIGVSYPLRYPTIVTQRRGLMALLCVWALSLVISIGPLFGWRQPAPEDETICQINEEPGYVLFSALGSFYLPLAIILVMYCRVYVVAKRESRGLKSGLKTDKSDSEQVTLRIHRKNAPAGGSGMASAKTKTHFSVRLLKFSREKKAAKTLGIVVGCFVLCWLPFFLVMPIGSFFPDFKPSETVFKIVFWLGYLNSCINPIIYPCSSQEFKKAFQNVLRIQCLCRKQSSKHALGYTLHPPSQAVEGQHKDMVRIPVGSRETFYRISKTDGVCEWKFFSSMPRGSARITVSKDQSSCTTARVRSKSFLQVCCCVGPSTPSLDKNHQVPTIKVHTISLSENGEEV

Assay [2] deals with T2, Muscarinic acetylcholine receptor M1 (Homo sapiens, UniProt P11229).
T2 sequence (P11229 whole entry): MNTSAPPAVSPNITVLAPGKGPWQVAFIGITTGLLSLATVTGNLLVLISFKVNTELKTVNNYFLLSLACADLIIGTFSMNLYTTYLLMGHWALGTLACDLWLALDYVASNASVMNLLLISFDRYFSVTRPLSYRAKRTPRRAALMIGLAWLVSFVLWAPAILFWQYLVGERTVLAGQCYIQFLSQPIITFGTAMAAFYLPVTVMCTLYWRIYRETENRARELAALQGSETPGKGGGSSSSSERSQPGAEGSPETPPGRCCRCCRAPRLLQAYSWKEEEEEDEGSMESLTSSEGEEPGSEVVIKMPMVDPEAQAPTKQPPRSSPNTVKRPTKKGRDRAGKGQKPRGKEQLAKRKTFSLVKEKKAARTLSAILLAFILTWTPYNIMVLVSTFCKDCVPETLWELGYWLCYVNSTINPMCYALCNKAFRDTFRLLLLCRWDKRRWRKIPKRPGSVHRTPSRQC

For a further assay, the target named is Histamine H1 receptor (Homo sapiens, UniProt P35367). It is filed as functional, cell-based.
Further: assay procedure not described here.

Sequence of D(1A) dopamine receptor (P21728 whole entry): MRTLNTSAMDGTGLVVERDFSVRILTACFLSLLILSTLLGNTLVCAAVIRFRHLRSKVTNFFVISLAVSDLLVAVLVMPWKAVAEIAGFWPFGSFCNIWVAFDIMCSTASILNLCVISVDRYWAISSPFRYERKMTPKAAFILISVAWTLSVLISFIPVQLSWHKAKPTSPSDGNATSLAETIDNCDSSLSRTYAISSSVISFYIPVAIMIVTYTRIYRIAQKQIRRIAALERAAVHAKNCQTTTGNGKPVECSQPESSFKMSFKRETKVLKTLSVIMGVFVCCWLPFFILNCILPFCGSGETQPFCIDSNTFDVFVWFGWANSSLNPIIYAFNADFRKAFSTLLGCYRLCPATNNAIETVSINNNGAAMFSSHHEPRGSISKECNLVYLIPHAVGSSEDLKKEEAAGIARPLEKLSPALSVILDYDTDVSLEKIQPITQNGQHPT
Sequence of Histamine H1 receptor (P35367 whole entry): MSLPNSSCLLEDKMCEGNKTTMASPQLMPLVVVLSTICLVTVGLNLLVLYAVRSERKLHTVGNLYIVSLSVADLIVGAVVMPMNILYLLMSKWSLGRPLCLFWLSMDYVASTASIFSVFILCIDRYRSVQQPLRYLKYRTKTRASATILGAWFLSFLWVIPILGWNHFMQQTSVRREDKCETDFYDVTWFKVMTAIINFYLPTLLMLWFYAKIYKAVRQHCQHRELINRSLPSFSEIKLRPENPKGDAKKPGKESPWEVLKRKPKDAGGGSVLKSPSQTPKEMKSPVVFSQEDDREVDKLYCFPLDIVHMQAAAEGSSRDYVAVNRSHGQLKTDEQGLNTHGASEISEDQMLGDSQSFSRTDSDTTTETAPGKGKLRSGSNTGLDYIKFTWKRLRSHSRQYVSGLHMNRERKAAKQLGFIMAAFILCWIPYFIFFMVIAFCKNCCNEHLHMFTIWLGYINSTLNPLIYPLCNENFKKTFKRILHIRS

With `CN(CC1(C)CCCO1)S(=O)(=O)c1ccc(Cl)c(S(N)(=O)=O)c1` (stereo unspecified) [MEFRUSIDE], the AC50 (at D(1A) dopamine receptor; in assay [1]; in assay [2]) was above 30 µM in each case.
As to `CCOC(=O)c1c(C)cc2c(CO)n[nH]c(=O)c2c1C` [OXAGRELATE], the AC50 (on D(1A) dopamine receptor; in assay [1]; in assay [2]) was above 30 µM in each case.
As for `FC(F)(F)c1ccc(CNc2ccc(Cc3c[nH]c4ncc(Cl)cc34)cn2)cn1` [PEXIDARTINIB], the concentration at half-maximal activity (AC50) at D(1A) dopamine receptor was 5.53 µM; in assay [1], 1.31 µM; in assay [2], 0.3 µM.
For the compound `CC[C@@]1(O)C(=O)OCc2c1cc1n(c2=O)Cc2cc3c([N+](=O)[O-])cccc3nc2-1` [RUBITECAN], the concentration at half-maximal activity (AC50) (at D(1A) dopamine receptor; in assay [1]; in assay [2]) was above 30 µM throughout.
For `OC[C@H]1O[C@@](CO)(O[C@H]2O[C@H](CO)[C@@H](O)[C@H](O)[C@H]2O)[C@@H](O)[C@@H]1O` [SUCROSE], the half-maximal activity concentration (AC50) (on Histamine H1 receptor; at D(1A) dopamine receptor; in assay [1]; in assay [2]) was above 30 µM in each case.
